Source: the supplement of paper PMC10307832

Assays:
Assay in all cases: relative viability (nuclei count vs DMSO), 5 days (fraction); higher = more cells survive
[1] = compound: Cc1ccc2nc(NCCN)c3ncc(C)n3c2c1 + CC(C)C[C@H](NC(=O)[C@H](Cc1ccccc1)NC(=O)c1cnccn1)B(O)O [Bortezomib] (partner 0.002 µM)
How it was run: (§1)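 After 5 days of treatment, lung cancer cells in 1536-well plates were fixed and stained in a single step (final 0.05% Triton X-100, 1% formaldehyde, 1 ug/ml Hoechst) and their nuclei counted on 4× images. Treatment had been applied by pin tool the day after seeding as one drug alone or as a fixed anchor-drug dose with five library-drug doses (not always all listed) in √10 steps. Relative viability is the nuclei count of treated wells divided by that of vehicle wells, and values are medians of duplicate plates.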

[2] = compound: Cc1ccc2nc(NCCN)c3ncc(C)n3c2c1 + CS(=O)(=O)N1CCN(Cc2cc3nc(-c4cccc5[nH]ncc45)nc(N4CCOCC4)c3s2)CC1 [Pictilisib] (partner 1 µM)
How it was run: as §1

[3] = compound: Cc1ccc2nc(NCCN)c3ncc(C)n3c2c1 + O=C(c1cc(Cc2n[nH]c(=O)c3ccccc23)ccc1F)N1CCN(C(=O)C2CC2)CC1 [Olaparib] (partner 8 µM)
How it was run: as §1

[4] = compound: O=C(/C=C/c1ccccc1)NC(NC(=S)Nc1cccc2cccnc12)C(Cl)(Cl)Cl [Salubrinal] + Cc1nc(Nc2ncc(C(=O)Nc3c(C)cccc3Cl)s2)cc(N2CCN(CCO)CC2)n1 [Dasatinib] (partner 0.075 µM)
How it was run: as §1

In the case of NCI-H1650, the relative viability ([1]; first compound 0.04 µM) was 0.203, the relative viability ([1]; first compound 0.1265 µM) was 0.19 and the relative viability ([1]; first compound 0.4 µM) was 0.206. It also gave a relative viability ([1]; first compound 1.265 µM) of 0.182, a relative viability ([1]; first compound 4 µM) of 0.202 and a relative viability ([2]; first compound 0.04 µM) of 0.531. The relative viability ([2]; first compound 0.1265 µM) was 0.564, the relative viability ([2]; first compound 0.4 µM) was 0.429 and the relative viability ([2]; first compound 1.265 µM) was 0.527. The relative viability ([2]; first compound 4 µM) was 0.515, the relative viability ([3]; first compound 0.04 µM) was 0.647 and the relative viability ([3]; first compound 0.1265 µM) was 0.804. It also gave a relative viability ([3]; first compound 0.4 µM) of 0.715, a relative viability ([3]; first compound 1.265 µM) of 0.821 and a relative viability ([3]; first compound 4 µM) of 0.549. For the same cell line, the relative viability ([4]; first compound 0.08 µM) was 0.366, the relative viability ([4]; first compound 0.253 µM) was 0.35 and the relative viability ([4]; first compound 0.8 µM) was 0.321. It also gave a relative viability ([4]; first compound 2.53 µM) of 0.357 and a relative viability ([4]; first compound 8 µM) of 0.294.
In the case of NCI-H2087, the relative viability ([1]; first compound 0.04 µM) was 0.756, the relative viability ([1]; first compound 0.1265 µM) was 0.955 and the relative viability ([1]; first compound 0.4 µM) was 0.66. For the same cell line, the relative viability ([1]; first compound 1.265 µM) was 0.824, the relative viability ([1]; first compound 4 µM) was 0.864 and the relative viability ([2]; first compound 0.04 µM) was 1.05. The relative viability ([2]; first compound 0.1265 µM) was 0.824, the relative viability ([2]; first compound 0.4 µM) was 0.816 and the relative viability ([2]; first compound 1.265 µM) was 0.981. It also gave a relative viability ([2]; first compound 4 µM) of 0.984, a relative viability ([3]; first compound 0.04 µM) of 0.671 and a relative viability ([3]; first compound 0.1265 µM) of 0.522. It also gave a relative viability ([3]; first compound 0.4 µM) of 0.609, a relative viability ([3]; first compound 1.265 µM) of 0.691 and a relative viability ([3]; first compound 4 µM) of 0.589. The relative viability ([4]; first compound 0.08 µM) was 0.954, the relative viability ([4]; first compound 0.253 µM) was 0.62 and the relative viability ([4]; first compound 0.8 µM) was 1.15. The relative viability ([4]; first compound 2.53 µM) was 1.01 and the relative viability ([4]; first compound 8 µM) was 0.733.
HCC-366 showed a relative viability ([1]; first compound 0.04 µM) of 1.06, a relative viability ([1]; first compound 0.1265 µM) of 0.948 and a relative viability ([1]; first compound 0.4 µM) of 1.13. The relative viability ([1]; first compound 1.265 µM) was 1.11, the relative viability ([1]; first compound 4 µM) was 0.967 and the relative viability ([2]; first compound 0.04 µM) was 0.131. The relative viability ([2]; first compound 0.1265 µM) was 0.123, the relative viability ([2]; first compound 0.4 µM) was 0.163 and the relative viability ([2]; first compound 1.265 µM) was 0.114. The relative viability ([2]; first compound 4 µM) was 0.116, the relative viability ([3]; first compound 0.04 µM) was 0.388 and the relative viability ([3]; first compound 0.1265 µM) was 0.394. It also gave a relative viability ([3]; first compound 0.4 µM) of 0.36, a relative viability ([3]; first compound 1.265 µM) of 0.352 and a relative viability ([3]; first compound 4 µM) of 0.366. For the same cell line, the relative viability ([4]; first compound 0.08 µM) was 0.813, the relative viability ([4]; first compound 0.253 µM) was 0.497 and the relative viability ([4]; first compound 0.8 µM) was 0.777. The relative viability ([4]; first compound 2.53 µM) was 0.555 and the relative viability ([4]; first compound 8 µM) was 0.528.
Work on NCI-H727 yielded a relative viability ([1]; first compound 0.04 µM) of 0.822, a relative viability ([1]; first compound 0.1265 µM) of 0.806 and a relative viability ([1]; first compound 0.4 µM) of 0.683. For the same cell line, the relative viability ([1]; first compound 1.265 µM) was 0.732, the relative viability ([1]; first compound 4 µM) was 0.639 and the relative viability ([2]; first compound 0.04 µM) was 0.288. It also gave a relative viability ([2]; first compound 0.1265 µM) of 0.443, a relative viability ([2]; first compound 0.4 µM) of 0.46 and a relative viability ([2]; first compound 1.265 µM) of 0.388. The relative viability ([2]; first compound 4 µM) was 0.354, the relative viability ([3]; first compound 0.04 µM) was 0.561 and the relative viability ([3]; first compound 0.4 µM) was 0.731. The relative viability ([3]; first compound 1.265 µM) was 0.785, the relative viability ([3]; first compound 4 µM) was 0.709 and the relative viability ([4]; first compound 0.08 µM) was 0.311. The relative viability ([4]; first compound 0.253 µM) was 0.38, the relative viability ([4]; first compound 0.8 µM) was 0.341 and the relative viability ([4]; first compound 2.53 µM) was 0.409. The relative viability ([4]; first compound 8 µM) was 0.375.
Work on LU99A yielded a relative viability ([1]; first compound 0.04 µM) of 1.26, a relative viability ([1]; first compound 0.1265 µM) of 1.08 and a relative viability ([1]; first compound 0.4 µM) of 1.07. It also gave a relative viability ([1]; first compound 1.265 µM) of 1.2, a relative viability ([1]; first compound 4 µM) of 1 and a relative viability ([2]; first compound 0.04 µM) of 0.346. The relative viability ([2]; first compound 0.1265 µM) was 0.328, the relative viability ([2]; first compound 0.4 µM) was 0.327 and the relative viability ([2]; first compound 1.265 µM) was 0.349. For the same cell line, the relative viability ([2]; first compound 4 µM) was 0.321, the relative viability ([3]; first compound 0.04 µM) was 0.322 and the relative viability ([3]; first compound 0.1265 µM) was 0.319. It also gave a relative viability ([3]; first compound 0.4 µM) of 0.288, a relative viability ([3]; first compound 1.265 µM) of 0.29 and a relative viability ([3]; first compound 4 µM) of 0.258. It also gave a relative viability ([4]; first compound 0.08 µM) of 0.537, a relative viability ([4]; first compound 0.253 µM) of 0.597 and a relative viability ([4]; first compound 0.8 µM) of 0.688. It also gave a relative viability ([4]; first compound 2.53 µM) of 0.593 and a relative viability ([4]; first compound 8 µM) of 0.416.
Work on NCI-H647 yielded a relative viability ([1]; first compound 0.04 µM) of 0.943, a relative viability ([1]; first compound 0.1265 µM) of 0.783 and a relative viability ([1]; first compound 0.4 µM) of 0.999. The relative viability ([1]; first compound 1.265 µM) was 0.864, the relative viability ([1]; first compound 4 µM) was 0.707 and the relative viability ([2]; first compound 0.04 µM) was 0.552. For the same cell line, the relative viability ([2]; first compound 0.1265 µM) was 0.409, the relative viability ([2]; first compound 0.4 µM) was 0.385 and the relative viability ([2]; first compound 1.265 µM) was 0.44. The relative viability ([2]; first compound 4 µM) was 0.373, the relative viability ([3]; first compound 0.04 µM) was 0.602 and the relative viability ([3]; first compound 0.1265 µM) was 0.492. For the same cell line, the relative viability ([3]; first compound 0.4 µM) was 0.517, the relative viability ([3]; first compound 1.265 µM) was 0.642 and the relative viability ([3]; first compound 4 µM) was 0.268. It also gave a relative viability ([4]; first compound 0.08 µM) of 0.168, a relative viability ([4]; first compound 0.253 µM) of 0.203 and a relative viability ([4]; first compound 0.8 µM) of 0.235. It also gave a relative viability ([4]; first compound 2.53 µM) of 0.243 and a relative viability ([4]; first compound 8 µM) of 0.137.
HCC-78 was tested, and the relative viability ([1]; first compound 0.04 µM) was 0.52, the relative viability ([1]; first compound 0.1265 µM) was 0.424 and the relative viability ([1]; first compound 0.4 µM) was 0.365. The relative viability ([1]; first compound 4 µM) was 0.444, the relative viability ([2]; first compound 0.04 µM) was 0.229 and the relative viability ([2]; first compound 0.1265 µM) was 0.23. For the same cell line, the relative viability ([2]; first compound 0.4 µM) was 0.222, the relative viability ([2]; first compound 1.265 µM) was 0.215 and the relative viability ([2]; first compound 4 µM) was 0.217. For the same cell line, the relative viability ([3]; first compound 0.04 µM) was 0.746, the relative viability ([3]; first compound 0.1265 µM) was 0.861 and the relative viability ([3]; first compound 0.4 µM) was 0.655. It also gave a relative viability ([3]; first compound 1.265 µM) of 0.587, a relative viability ([3]; first compound 4 µM) of 0.766 and a relative viability ([4]; first compound 0.08 µM) of 0.404. It also gave a relative viability ([4]; first compound 0.253 µM) of 0.343, a relative viability ([4]; first compound 0.8 µM) of 0.688 and a relative viability ([4]; first compound 2.53 µM) of 0.361. For the same cell line, the relative viability ([4]; first compound 8 µM) was 0.363.
NCI-H1755 showed a relative viability ([1]; first compound 0.04 µM) of 1.02, a relative viability ([1]; first compound 0.1265 µM) of 0.99 and a relative viability ([1]; first compound 0.4 µM) of 0.897. The relative viability ([1]; first compound 1.265 µM) was 0.956, the relative viability ([1]; first compound 4 µM) was 1.02 and the relative viability ([2]; first compound 0.04 µM) was 0.485. For the same cell line, the relative viability ([2]; first compound 0.1265 µM) was 0.439, the relative viability ([2]; first compound 0.4 µM) was 0.476 and the relative viability ([2]; first compound 1.265 µM) was 0.39. The relative viability ([2]; first compound 4 µM) was 0.411, the relative viability ([3]; first compound 0.04 µM) was 0.859 and the relative viability ([3]; first compound 0.1265 µM) was 0.878. The relative viability ([3]; first compound 0.4 µM) was 0.835, the relative viability ([3]; first compound 1.265 µM) was 0.903 and the relative viability ([3]; first compound 4 µM) was 0.791. It also gave a relative viability ([4]; first compound 0.08 µM) of 0.443, a relative viability ([4]; first compound 0.253 µM) of 0.444 and a relative viability ([4]; first compound 0.8 µM) of 0.45. The relative viability ([4]; first compound 2.53 µM) was 0.426 and the relative viability ([4]; first compound 8 µM) was 0.344.
